# System: Tcf7
# Test: Tcf7 protein levels by intracellular flow cytometry in CD8 T cells cultured with neutralizing antibodies or added cytokines
# Type: cell-based
# Settings: naïve CD8 T cells from wild-type mice, anti-CD3/anti-CD28 stimulation, cultured 1 week in IL2, IL7, IL15, IL21; versus isotype antibodies
# Source text: Next, it was sought to determine whether the effects of blocking IFN-γ signaling on the Tcf7+ phenotype could be recapitulated using a method separate from CRISPR-deletion, such as with neutralizing antibodies. As such, antibodies to both the Ifn-gamma and Ifn-gamma receptor genes were used. Naïve CD8 T cells were isolated from wild-type mice and cultured in the presence of either isotype-control or a combination of Ifn-gamma and IfngR neutralizing antibodies at various dosing levels or in the presence of added cytokines (either IFN-gamma, IFN-alpha, or IL12), then stimulated with anti-CD3/anti-CD28 antibodies and cultured for 1 week in IL2, IL7, IL15, and IL21, and Tcf7 protein levels were quantified by intracellular flow cytometry, as shown in FIG. 11.
substance,measurement,value
interferon-γ: added cytokine,Tcf7 expression (Tcf7 protein levels),no effect on Tcf7 expression
